SMILES strings stand for the structures. Several values for one entry are separate records, joined by “and”; a condition that tells them apart may be missing. Identical values can stand only once.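 All cell lines were grown in 96-well plates and treated with compound for 48 hours. GI50 = concentration required for 50% inhibition of growth. TGI denotes the concentration required for complete inhibition of growth.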

The values below come from PubChem BioAssay (NCI).

Some test systems named below: HT29 colon; MDA-MB-231 breast; SF-268 CNS; A549 NSCLC; SR leukemia; BT-549 breast; NCI/ADR-RES ovarian; COLO 205 colon; HL-60(TB) leukemia; DU-145 prostate.
What all share (assay): growth of human tumour cells (NCI), 48 h

`O=C1OC(=O)C(=C\c2ccc3c(c2)OCO3)/C1=C/c1ccc2c(c1)OCO2`: the TGI is greater than 100 µM with HT29 colon; greater than 100 µM with MDA-MB-231 breast; greater than 100 µM in the assay with SF-268 CNS; greater than 100 µM in the assay on A549 NSCLC; greater than 90.8 µM in the assay with SR leukemia; greater than 100 µM in the assay on BT-549 breast. Also, the TGI in the assay with NCI/ADR-RES ovarian is greater than 100 µM; in the assay with COLO 205 colon it was greater than 100 µM; in the assay with HL-60(TB) leukemia, greater than 88.1 µM; in the assay on DU-145 prostate it was greater than 100 µM.
Consider `O=C(Nc1ccc(OCc2nnc(-c3ccc(Cl)cc3)o2)c(F)c1)Nc1ccc(Cl)c(C(F)(F)F)c1`, for which the GI50 was 2.29 µM in the assay with HT29 colon; 2.35 µM in the assay on MDA-MB-231 breast; 3.33 µM with SF-268 CNS; 2.65 µM in the assay with A549 NSCLC; 1.85 µM in the assay with SR leukemia; 3.06 µM in the assay on BT-549 breast. The GI50 with NCI/ADR-RES ovarian is 2.59 µM; in the assay on COLO 205 colon it was 1.73 µM; in the assay with HL-60(TB) leukemia it was 2.83 µM; in the assay on DU-145 prostate, 2.48 µM. In addition, the TGI with HT29 colon turned out to be 5.69 µM; in the assay on MDA-MB-231 breast, 7.64 µM; with SF-268 CNS it was 12.5 µM; with A549 NSCLC, 11.7 µM; in the assay with SR leukemia, 4.9 µM; in the assay with BT-549 breast it was 11 µM. The TGI with NCI/ADR-RES ovarian came out at 11.5 µM; in the assay on COLO 205 colon, 3.5 µM; in the assay with HL-60(TB) leukemia, 6.78 µM; in the assay with DU-145 prostate, 6.78 µM.
For the molecule `O=C1c2ccccc2-c2cc([N+](=O)[O-])c([N+](=O)[O-])cc21`, the TGI in the assay on HT29 colon turned out to be 3.87 µM; with MDA-MB-231 breast, 3.33 µM; in the assay on SF-268 CNS it was 5.13 µM; in the assay on A549 NSCLC, 6.23 µM; in the assay with SR leukemia, 0.459 µM; in the assay on BT-549 breast, 3.79 µM. Moreover, the TGI in the assay with NCI/ADR-RES ovarian worked out at 9.64 µM; in the assay with COLO 205 colon, 4.71 µM; in the assay with HL-60(TB) leukemia it was 3.97 µM; in the assay with DU-145 prostate, 3.28 µM.
On to `Nc1nc(OCc2ccccc2)c2[nH]cnc2n1`, for which the GI50 in the assay with HT29 colon is 45.8 µM and 39.9 µM; in the assay on MDA-MB-231 breast, 36.5 µM and 31.5 µM; with SF-268 CNS, 53.2 µM; with A549 NSCLC it was 35.1 µM and 48.9 µM; in the assay on SR leukemia, 36.6 µM; in the assay with BT-549 breast, 24.3 µM and 22.1 µM. Further, the GI50 in the assay with NCI/ADR-RES ovarian is 97.2 µM and 84.9 µM; in the assay with COLO 205 colon, 57 µM and 36.1 µM; in the assay on HL-60(TB) leukemia, 39.8 µM and 17.7 µM; with DU-145 prostate it was 33.6 µM and 30.1 µM. Further, the TGI with HT29 colon is 400 µM and 175 µM; with MDA-MB-231 breast it was 163 µM; in the assay on SF-268 CNS, 400 µM and 574 µM; in the assay on A549 NSCLC, 338 µM and 240 µM; with BT-549 breast it was 115 µM; with NCI/ADR-RES ovarian, 414 µM. In addition, the TGI with COLO 205 colon was 288 µM and 151 µM; with HL-60(TB) leukemia it was 181 µM and 57.8 µM; with DU-145 prostate, 266 µM.
In the case of `O=S(=O)(Nc1cc(Sc2cccc3cccnc23)c(O)c2ccccc12)c1ccc(F)cc1`, the GI50 was 1.84 µM in the assay with HT29 colon; 0.837 µM in the assay on MDA-MB-231 breast; 1.89 µM with SF-268 CNS; 0.538 µM with A549 NSCLC; 0.465 µM in the assay on SR leukemia; 3.04 µM in the assay with BT-549 breast. Moreover, the GI50 in the assay with NCI/ADR-RES ovarian was 0.731 µM; with COLO 205 colon, 1.69 µM; in the assay with HL-60(TB) leukemia it was 2.12 µM; with DU-145 prostate it was 1.27 µM. In addition, the TGI with HT29 colon worked out at 6.59 µM; with MDA-MB-231 breast, 8.9 µM; in the assay on SF-268 CNS, 11.9 µM; in the assay with A549 NSCLC, 3.17 µM; in the assay with SR leukemia it was 7.63 µM; in the assay with BT-549 breast, 13.7 µM. Also, the TGI stood at 5.62 µM in the assay on NCI/ADR-RES ovarian, 3.51 µM in the assay with COLO 205 colon, 5.88 µM in the assay on HL-60(TB) leukemia and 3.81 µM in the assay with DU-145 prostate.
Take `CC(C)C[C@H](NC(=O)CNC(=O)c1cc(Cl)ccc1Cl)B1OC(=O)CC(CC(=O)O)(C(=O)O)O1` (some centres undefined): the GI50 in the assay with HT29 colon was 0.0327 µM; in the assay with MDA-MB-231 breast it was 0.0532 µM; in the assay with SF-268 CNS, 0.0723 µM; with A549 NSCLC, 0.11 µM; in the assay on SR leukemia it was 0.0384 µM; in the assay with BT-549 breast, 0.0324 µM. In addition, the GI50 in the assay with NCI/ADR-RES ovarian was 0.368 µM; in the assay on COLO 205 colon, 0.0868 µM; with HL-60(TB) leukemia, 0.0533 µM; in the assay with DU-145 prostate, 0.0804 µM. Further, the TGI is 0.141 µM in the assay on HT29 colon; 0.485 µM in the assay with MDA-MB-231 breast; 2.43 µM with SF-268 CNS; 20.6 µM with A549 NSCLC; greater than 100 µM with SR leukemia; 0.126 µM with BT-549 breast. The TGI is greater than 100 µM in the assay with NCI/ADR-RES ovarian, 22.3 µM in the assay on COLO 205 colon, greater than 100 µM with HL-60(TB) leukemia and 14.8 µM with DU-145 prostate.
`COc1ccc(-c2nc(Nc3cc(C)[nH]n3)c3ccccc3n2)cc1`: the GI50 in the assay with HT29 colon is 1.19 µM; in the assay on MDA-MB-231 breast it was 4.21 µM; with SF-268 CNS, 2.42 µM; in the assay with A549 NSCLC, 2.33 µM; in the assay with SR leukemia it was 0.581 µM; in the assay on BT-549 breast it was 3.07 µM. Moreover, the GI50 is 3.25 µM in the assay on NCI/ADR-RES ovarian, 1.5 µM in the assay on COLO 205 colon, 1.58 µM in the assay on HL-60(TB) leukemia and 3.75 µM in the assay on DU-145 prostate. Moreover, the TGI was 5.15 µM in the assay on HT29 colon; greater than 100 µM in the assay on MDA-MB-231 breast; greater than 59.4 µM in the assay with SF-268 CNS; 44.9 µM in the assay on A549 NSCLC; 25.4 µM in the assay with SR leukemia; 12.6 µM with BT-549 breast. Moreover, the TGI was greater than 58.1 µM with NCI/ADR-RES ovarian, 3.61 µM with COLO 205 colon, greater than 35.2 µM with HL-60(TB) leukemia and greater than 100 µM in the assay on DU-145 prostate.
On to `Cc1cc(S(=O)(=O)/N=C(/N)Nc2ccccc2O)c(SCc2ccccc2)cc1Cl`, for which the GI50 in the assay with HT29 colon was 32.5 µM; in the assay on MDA-MB-231 breast it was 14.8 µM; in the assay on SF-268 CNS, 13.4 µM; in the assay with A549 NSCLC it was 10.2 µM; in the assay with SR leukemia, 5.79 µM; in the assay on BT-549 breast it was 8.2 µM. The GI50 was 16.7 µM in the assay with NCI/ADR-RES ovarian, 23 µM in the assay with COLO 205 colon, 4.22 µM in the assay with HL-60(TB) leukemia and 23.9 µM with DU-145 prostate. Moreover, the TGI with HT29 colon is greater than 100 µM; in the assay on MDA-MB-231 breast, 32.2 µM; in the assay on SF-268 CNS, 45.4 µM; with A549 NSCLC, 32.1 µM; with SR leukemia, greater than 100 µM; in the assay on BT-549 breast, 22.8 µM. Moreover, the TGI with NCI/ADR-RES ovarian is 36.6 µM; in the assay with COLO 205 colon, 47.8 µM; in the assay with HL-60(TB) leukemia it was greater than 100 µM; with DU-145 prostate, 79.5 µM.
